Results reported in PubChem BioAssay AID850 (SRMLSC, 2007).
The source made the active and inactive calls. No rule for the calls is given here.

Experiments:
[1] = concentration-response yeast growth inhibition under permissive conditions, counter-assay for yeast lifespan-shortening chemical project (AID 850); settings: Saccharomyces cerevisiae growth inhibition, permissive control, measured here: maximum growth inhibition, stronger effect = higher value;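 also: growth read as optical density after one day of incubation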
[2] = system: Saccharomyces cerevisiae growth inhibition, permissive control; assay: as above

In the case of `C=CCSc1nnc2nc3c(nn12)c1cc(C)ccc1n3CC=C`, the inhibition ([1]; at 25 µM) is reported as 16.6% and the IC50 [2] is reported as > 100 µM (inactive).
In the case of `COc1ccc(C(=O)/C=C/Nc2ccc(C)cn2)cc1OC`, the inhibition ([1]; at 1.563 µM) is reported as 14.8% and the IC50 [2] is reported as > 100 µM (inactive).
`C(=N\c1ncnc2sccc12)/NOCc1ccccc1` showed an inhibition ([1]; at 50 µM) of 98.6% and an IC50 [2] of 7.68 µM.
Work on `Clc1ccc(CSC(Cn2ccnc2)c2ccc(Cl)cc2Cl)cc1` (centres undefined) yielded an inhibition ([1]; at 50 µM) of 99.4% and an IC50 [2] of 0.365 µM.
For `Cc1ccc(C(C[N+](=O)[O-])n2nc(C)cc2C)cc1` (centres undefined), the inhibition ([1]; at 50 µM) was 99.2% and the IC50 [2] was 13 µM.
With `Cc1oc(-c2cccs2)nc1CS(=O)CC(=O)NC1CCCCCC1` (centres undefined) the inhibition ([1]; at 6.25 µM) was 18.9% and the IC50 [2] was > 100 µM (inactive).
With `Oc1c(N=Nc2ccccn2)ccc2ccccc12` the inhibition ([1]; at 25 µM) was 98.2% and the IC50 [2] was 11.5 µM.
`Cc1ccccc1C(=O)NNC(=S)NC(=O)COc1ccccc1` showed an inhibition ([1]; at 50 µM) of 73.9% and an IC50 [2] of 26.5 µM.
In the case of `O=C(CSC1=NS(=O)(=O)c2ccccc21)Nc1ccccc1`, the inhibition ([1]; at 50 µM) is reported as 17.7% and the IC50 [2] is reported as > 100 µM (inactive).
For `COc1ccccc1N1CCN(C(CNC(=O)c2ccco2)c2cccnc2)CC1` (centres undefined), the inhibition ([1]; at 50 µM) was 18.3% and the IC50 [2] was > 100 µM (inactive).
In the case of `CC1=C(C)/C(=N\OS(=O)(=O)c2ccccc2)C=CC1=O`, the inhibition ([1]; at 50 µM) is reported as 99% and the IC50 [2] is reported as 6.14 µM.
For `O=c1[nH][nH]cc1C=Nc1ccccc1O`, the inhibition ([1]; at 1.563 µM) was 12.5% and the IC50 [2] was > 100 µM (inactive).
With `Cc1cc(C(=O)COC(=O)c2ccc[nH]c2=O)c(C)n1-c1ccc(F)cc1` the inhibition ([1]; at 50 µM) was 12.8% and the IC50 [2] was > 100 µM (inactive).
For `O=c1c(-c2ccccc2)nc(-c2ccccc2)cn1O`, the inhibition ([1]; at 50 µM) was 82.1% and the IC50 [2] was 22.9 µM.
Work on `CCCC1COC(Cn2cncn2)(c2ccc(C)cc2)O1` (centres undefined) yielded an inhibition ([1]; at 25 µM) of 94.7% and an IC50 [2] of 1.83 µM.
With `O=c1cc(C(F)(F)F)[nH]c2c(C(F)(F)F)cccc12` the inhibition ([1]; at 50 µM) was 97.5% and the IC50 [2] was 11.2 µM.
For `CCc1ccc2c(c1)C1(NN=C(c3ccccc3)S1)C(=O)N2` (centres undefined), the inhibition ([1]; at 50 µM) was 97.5% and the IC50 [2] was 27.5 µM.
With `Cc1cccc(NC(=O)CC2SC(=O)N(c3ccccc3)C2=O)c1` (centres undefined) the inhibition ([1]; at 50 µM) was -6.43% and the IC50 [2] was > 100 µM (inactive).
For `Oc1c(Br)cc(Br)cc1Oc1ccc(Br)cc1Br`, the inhibition ([1]; at 3.125 µM) was 4.84% and the IC50 [2] was > 100 µM (inactive).
With `Cc1cccc(N=Nc2ccc(O)c3ncccc23)c1` the inhibition ([1]; at 50 µM) was 27.9% and the IC50 [2] was > 100 µM (inactive).
In the case of `CN1C(=O)/C(=N/OC(=O)c2ccccc2)c2ccccc21`, the inhibition ([1]; at 50 µM) is reported as 90.8% and the IC50 [2] is reported as 46.3 µM.
With `Cc1ccc(/C=C/C(=O)c2ccccc(=O)c2O)cc1C` the inhibition ([1]; at 25 µM) was 98.9% and the IC50 [2] was 4.5 µM.
`C/C(=N\Nc1ccc([N+](=O)[O-])cc1)c1ccc(N)cc1` gave an inhibition ([1]; at 50 µM) of 94.4% and an IC50 [2] of 6.04 µM.
With `Oc1cccc(C=NCc2ccccc2)c1O` the inhibition ([1]; at 50 µM) was 98.8% and the IC50 [2] was 10.4 µM.
In the case of `O=C(Nc1nc(-c2ccccn2)cs1)c1ccc(Br)s1`, the inhibition ([1]; at 12.5 µM) is reported as 99.4% and the IC50 [2] is reported as 5.55 µM.
In the case of `COc1ccc(-c2nnc3c4ccccc4c(C)nn23)cc1`, the inhibition ([1]; at 1.563 µM) is reported as 11.6% and the IC50 [2] is reported as > 100 µM (inactive).
With `CC(C)Sc1nc(N)nc(-c2cccs2)c1C#N` the inhibition ([1]; at 1.563 µM) was 14.6% and the IC50 [2] was > 100 µM (inactive).
For `O=c1cc(-c2ccccc2)[nH]n1-c1nc2ccccc2[nH]1`, the inhibition ([1]; at 50 µM) was 97.3% and the IC50 [2] was 13.3 µM.
With `COc1ccc(C(=O)NC(=S)NNC(=O)c2cnccn2)cc1OC` the inhibition ([1]; at 25 µM) was 47.1% and the IC50 [2] was 46.5 µM.
`CCC1C(=O)N=C(SCC(=O)Nc2ccccc2)NC1=O` (centres undefined) showed an inhibition ([1]; at 50 µM) of 52.5% and an IC50 [2] of 46.5 µM.
In the case of `Fc1ccc2nc3[nH]c4ccccc4c3nc2c1`, the inhibition ([1]; at 50 µM) is reported as 20.7% and the IC50 [2] is reported as > 100 µM (inactive).
For `O=C(O)CCSc1nnc(-c2ccccc2)n1-c1ccccc1`, the inhibition ([1]; at 1.563 µM) was 15.8% and the IC50 [2] was > 100 µM (inactive).
`Cn1cccc1C(=O)NC(=O)CSc1cccc[n+]1[O-]` gave an inhibition ([1]; at 50 µM) of 97.5% and an IC50 [2] of 24.3 µM.
`Cc1ccccc1C(=O)O/N=C/c1c(N2CCOCC2)n(C)c2ccccc12` gave an inhibition ([1]; at 50 µM) of 57.1% and an IC50 [2] of 50.7 µM.
Work on `Cc1ccc(/C=C/C(=O)c2ccccc(=O)c2O)c(C)c1` yielded an inhibition ([1]; at 25 µM) of 101% and an IC50 [2] of 6.08 µM.
With `CC(=O)NC(=S)c1c(N)n(Cc2ccccc2)c(=O)n(C)c1=O` the inhibition ([1]; at 3.125 µM) was 7.99% and the IC50 [2] was > 100 µM (inactive).
`O=C(O)CSc1nc(-c2ccc(Cl)cc2)nc2c1oc1ccccc12` showed an inhibition ([1]; at 50 µM) of 86.6% and an IC50 [2] of 32.1 µM.
For `Cc1c(C=O)c2ccccn2c1C(=O)c1ccncc1`, the inhibition ([1]; at 50 µM) was 10.7% and the IC50 [2] was > 100 µM (inactive).
In the case of `O=C(Nc1nc(-c2ccccn2)cs1)c1ncc(Cl)c(Cl)c1Cl`, the inhibition ([1]; at 12.5 µM) is reported as 13.1% and the IC50 [2] is reported as > 100 µM (inactive).
`CCOC(=O)c1ccc(-n2[nH]c(-c3ccccc3)cc2=O)cc1` showed an inhibition ([1]; at 12.5 µM) of 47.7% and an IC50 [2] of 47.7 µM.
With `O=C(Cc1ccccc1)NCCc1cn2ccsc2n1` the inhibition ([1]; at 0.391 µM) was 26% and the IC50 [2] was > 100 µM (inactive).
For `Nc1nc2sc3c(c2c(=O)s1)CCCC3`, the inhibition ([1]; at 0.195 µM) was 24.4% and the IC50 [2] was > 100 µM (inactive).
